For one data set, the target named is SARS-CoV-2 M^PRO (Severe acute respiratory syndrome coronavirus 2, UniProt P0DTD1). Kind of data set: biochemical. The data set is classed as biochemical.
Data set [1] relates to SARS-CoV-2 (hCoV-19/Egypt/NRC-03/2020). Description: microbe, parasite or virus in culture. Particulars: for selectivity index CC50/IC50: CC50 (VERO-E6) / antiviral IC50. The format is cell-based.
The next data set can be described thus: in vitro. Particulars: African green monkey.
The subject of another data set is M^PRO. Particulars: read-out: reported bioassay IC50 (M^PRO); reported for the co-crystallized inhibitors (PDB 7CBT, 6W63); ref not given; cited from earlier work.
The next data set in a line: MTT cytotoxicity assay. As to conditions: African green monkey. For orientation: Tetrazolium assays rely on reduction of a dye to a coloured formazan, in cell work by metabolically active cells.
For data set [2] the following is noted: cited from earlier work.
Details of data set [3]: method as in PMID 33203926. Particulars: cited from earlier work.
Another data set concerns SARS-CoV-2 infection. The arrangement: method as in PMID 33203926. Particulars: read-out: IC50 against SARS-CoV-2 infection; cited from earlier work.
Details of data set [4]: method as in earlier work. As to conditions: dose of 5 mg/day to 2600 mg/day, without any toxic symptoms; cited from earlier work.
On the set-up of data set [5]: method as in PMID 24924310. Particulars: cited from earlier work.
[6] abbreviates: relative to GC376 standard inhibitor, read-out: IC50 on SARS-CoV-2 viral main protease.
Where [7] appears, read: Severe acute respiratory syndrome coronavirus 2, Vero C1008, hCoV-19/Egypt/NRC-03/2020 on Vero-E6 cells, read-out: IC50 antiviral activity against SARS-CoV-2.
The mark [8] stands for this setting: Severe acute respiratory syndrome coronavirus 2, Vero C1008, read-out: IC50 antiviral activity against SARS-CoV-2.

In general, pIC50 refers to the IC50 on a negative log10 scale, so that one unit is a factor of ten. One may read the IC50 as the concentration needed to halve the response being measured.

pIC50: −log10 of the molar value. Converted amounts (≈) assume the structure as drawn. Like-named read-outs stand apart in the source and are kept apart here.

`COc1cc(-c2cc(=O)c3c(O)c(OC)c(OC)c(OC)c3o2)cc(OC)c1OC` [Gardenin A]: the “% Inhibition of SARS-CoV-2 M^PRO by isolated compounds” value (“% Inhibition of SARS-CoV-2 M^PRO” below) on SARS-CoV-2 M^PRO is 73.80%. For the same compound, the pIC50 at SARS-CoV-2 M^PRO (setting [6]) is 5.22. Moreover, the “selectivity index CC50/IC50” value in [1] was determined as 2.9. In addition, the IC50 in data set [1] (setting [7]) is 83.8 µg/mL (≈ 200 µM). For the same compound, the CC50 in the data set “in vitro” came to 246 µg/mL (≈ 589 µM).
`CC(C)C[C@H](NC(=O)OCc1ccccc1)C(=O)N[C@@H](CC1CCNC1=O)C(O)S(=O)(=O)O` (stereo partly drawn) [GC376]: the pIC50 in the data set on M^PRO was 7.59.
On to `CCCCC[C@H](O)CC(=O)CCc1ccc(O)c(OC)c1` [6-Gingerol], for which the “% Inhibition of SARS-CoV-2 M^PRO” value at SARS-CoV-2 M^PRO was 65.2%. For the same compound, the pIC50 was 5.03 at SARS-CoV-2 M^PRO and under 4.00 in the data set on SARS-CoV-2 infection. Further, the figures for the CC50 (in the data set “MTT cytotoxicity assay”; in [3]) were 101 µg/mL (≈ 344 µM) and over 100 µM, respectively. Also, the “absorption after oral administration” value in [2] (detected in blood as glucuronide and sulfate conjugates) is “well-absorbed”. The “toxicity / tolerability in humans” value in data set [2] (doses up to 2.0 g daily, only mild gastrointestinal complaints) was “low levels of toxicity and high levels of tolerability”. In data set [1], the “selectivity index CC50/IC50” value came out at 2.3. The IC50 in data set [1] (setting [8]) is 43.5 µg/mL (≈ 148 µM).
Take `CC(C)(C)c1ccc(N(C(=O)c2cnc[nH]2)[C@@H](C(=O)NC2CCCCC2)c2cccnc2)cc1` [X77]: the pIC50 in the data set with M^PRO was 5.64.
With `COc1ccc(-c2cc(=O)c3c(O)c(OC)c(OC)c(OC)c3o2)cc1` [Gardenin B], at SARS-CoV-2 M^PRO, the “% Inhibition of SARS-CoV-2 M^PRO” value is listed as 1.00%.
As to `CC1=CC(=O)C(C(C)C)=CC1=O` [Thymoquinone], at SARS-CoV-2 M^PRO (FRET assay, isolated compounds), the “% Inhibition of SARS-CoV-2 M^PRO” value is given as 63.21%. Moreover, on SARS-CoV-2 M^PRO (setting [6]), the pIC50 was 4.99. Also, in “MTT cytotoxicity assay” (VERO-E6 cells), the CC50 came to 8.2 µg/mL (≈ 49.9 µM). For the same compound, the clinical safety entry in [4] was “safe”. Moreover, in [5] (after oral and IV administration), the elimination result was “rapid-elimination properties”. In addition, the “absorption following oral administration” value in data set [5] (oral) was “relatively slower absorption”. Further, in data set [1], the “selectivity index CC50/IC50” value is reported as 1.33. The IC50 in [1] (setting [8]) turned out to be 6.14 µg/mL (≈ 37.4 µM).
Turning to `CCCCCCCC(=O)CCc1ccc(O)c(OC)c1` [6-Paradol], the “% Inhibition of SARS-CoV-2 M^PRO” value on SARS-CoV-2 M^PRO (FRET assay, isolated compounds) was 71.8%. Further, the pIC50 on SARS-CoV-2 M^PRO (setting [6]) was 6.77. The “selectivity index CC50/IC50” value in [1] stood at 0.6. The IC50 in data set [1] (setting [7]) amounted to 281 µg/mL (≈ 1010 µM). In the data set “in vitro”, this compound yielded a CC50 of 155 µg/mL (≈ 557 µM).

The record behind these values is publication PMC9332707, “Bio-Guided Isolation of SARS-CoV-2 Main Protease Inhibitors from Medicinal Plants: In Vitro Assay and Molecular Dynamics” (Plants, 2022).
